Structures can show the parent of a compound that is named as a salt. Marks after values point to notes of the source that are not given here.
Key:
[1] = system: A375P F11s; assay: In vivo tumor growth, A375P F11s subcutaneous tumors; parameters: species or system athymic mice; key: −: no response; +: growth delay (1-2×doubling); ++: growth delay (>2×doubling); +++: stable disease; ++++: partial regression; +++++: complete regression; conditions: oral, 14-day period
Method: (§1) A375P F11s and Colo205 cells were cultured in RPMI 1640 medium supplemented with 10% fetal bovine serum and 1% sodium pyruvate or 10% fetal bovine serum and without sodium pyruvate, respectively. Tumor cells (1.75×10^6 A375P F11 s or 5×10^6 Colo205) were implanted subcutaneously into the right flank of athymic mice on Day 1. To facilitate their growth, A375P F11s cells were suspended in Matrigel diluted 1:1 in phosphate-buffered saline before implantation. When tumors had reached approximately 200 mm^3 in volume (Day 19-22), tumor-bearing mice were randomized into study groups (n=7 or 8). Animals were dosed orally once or twice daily for a 14-day period. The compound of Example 19b was dosed in a 0.5% HPMC/0.2% Tween 80 pH 7-8 vehicle. Tumor growth was measured twice a week using calipers for the duration of the study. Tumor volumes were calculated as a product of (length×width×width)/2 and median values were used to compare groups. Complete regressions (CR) were defined as three consecutive tumor measurements of ≦13.5 mm^3. Partial regressions were defined as three consecutive measurements of ≦50% of starting tumor volume. Tumor growth delay was defined as the difference in time taken for treated and control groups to reach 1000 mm^3 (T-C1000).

[2] = system: Colo205; assay: In vivo tumor growth, Colo205 subcutaneous tumors; parameters: species or system athymic mice; key: −: no response; +: growth delay (1-2×doubling); ++: growth delay (>2×doubling); +++: stable disease; ++++: partial regression; +++++: complete regression; conditions: oral, 14-day period
Method: as §1

COc1cc(N2CCN(CCS(C)(=O)=O)CC2)c(C)cc1Nc1nccc(-c2sc(C(C)C)nc2-c2cccc(NS(=O)(=O)c3c(F)cccc3F)c2)n1 [Example 19b, 2,6-Difluoro-N-(3-(2-(1-methylethyl)-5-(24(5-methyl-2-(methyloxy)-4-(4-[2-(methylsulfonyl)ethyl]-1-piperazinyl}phenyl)amino]-4-pyrimidinyl}-1,3-thiazol-4-yl)phenyl]benzenesulfonamide dihydrochloride]
Response ([1]; 1 mg/kg bid): − | Response ([1]; 3 mg/kg bid): + | Response ([1]; 10 mg/kg bid): ++ | Response ([1]; 30 mg/kg bid): ++++ | Response ([1]; 30 mg/kg qd, during dosing): +++ (during dosing)* | Response ([2]; 30 mg/kg bid): ++ | Response ([2]; 30 mg/kg qd): − | Response ([2]; 100 mg/kg bid): ++++ | Response ([2]; 300 mg/kg qd): ++++
